The results in this text go back to US20230265151A1, “GIP/GLP1 CO-AGONIST COMPOUNDS” (priority 2020, published 2023).

Read-outs that look alike come from different tables or passages of the source. Where only a bound is given, the exact number is not on record here.

Assay type in all cases: cell-based
Test [1] has as its target T1, hGIPR (Homo sapiens, UniProt P48546).
T1 construct: expressed in transfected cells
T1 sequence (P48546 22-466): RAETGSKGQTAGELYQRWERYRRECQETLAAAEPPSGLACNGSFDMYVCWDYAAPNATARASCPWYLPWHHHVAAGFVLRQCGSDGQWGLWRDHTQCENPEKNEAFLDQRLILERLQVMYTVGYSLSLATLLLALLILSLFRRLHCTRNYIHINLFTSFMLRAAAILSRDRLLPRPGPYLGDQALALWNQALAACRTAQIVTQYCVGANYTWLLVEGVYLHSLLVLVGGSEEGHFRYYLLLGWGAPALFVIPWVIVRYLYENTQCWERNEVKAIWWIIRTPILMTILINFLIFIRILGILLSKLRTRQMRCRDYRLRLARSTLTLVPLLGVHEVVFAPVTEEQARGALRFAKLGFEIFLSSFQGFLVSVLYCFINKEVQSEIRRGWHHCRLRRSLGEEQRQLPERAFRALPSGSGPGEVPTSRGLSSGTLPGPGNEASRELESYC
Put plainly: Functional cAMP formation (HTRF) in HEK-293 clonal cells expressing hGIPR, 0.1% bovine casein, without or with 1.0% human serum albumin. Particulars: for EC50: geometric mean. In a few lines: (§1)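 Cells were stimulated with peptide for 30 min at 37° C, then intracellular cAMP was measured by competitive HTRF (665/620 nm ratio) and converted to nM using a cAMP standard curve. Relative EC50 and Emax came from four-parameter logistic fits of percent maximal response against peptide concentration.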
For orientation: Changes in cAMP serve as a functional read-out for many G protein-coupled receptors.

Test [2] deals with T2, hGCGR (Homo sapiens, UniProt P47871).
T2 construct: expressed in transfected cells
T2 sequence (P47871 26-477): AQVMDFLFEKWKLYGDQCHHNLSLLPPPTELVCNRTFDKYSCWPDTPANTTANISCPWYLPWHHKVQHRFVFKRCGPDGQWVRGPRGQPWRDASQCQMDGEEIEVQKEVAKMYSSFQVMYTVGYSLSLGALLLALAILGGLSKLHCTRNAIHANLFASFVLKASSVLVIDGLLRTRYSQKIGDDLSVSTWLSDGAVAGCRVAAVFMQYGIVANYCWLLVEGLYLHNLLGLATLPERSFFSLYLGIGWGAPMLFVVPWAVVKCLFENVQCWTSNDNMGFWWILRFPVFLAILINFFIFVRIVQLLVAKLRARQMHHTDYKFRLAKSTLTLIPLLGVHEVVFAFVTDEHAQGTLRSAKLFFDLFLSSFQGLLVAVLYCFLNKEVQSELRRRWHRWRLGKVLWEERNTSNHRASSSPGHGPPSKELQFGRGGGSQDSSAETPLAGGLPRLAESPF
The test is described as follows: Functional cAMP formation (HTRF) in HEK-293 clonal cells expressing hGCGR, 0.1% bovine casein, without or with 1.0% human serum albumin. Conditions: geometric mean. The procedure, abridged:
as §1

In test [3] the target is hGLP-1R (Homo sapiens, UniProt P43220). Put plainly: Functional cAMP formation (HTRF) in HEK-293 clonal cells expressing hGLP-1R, 0.1% bovine casein, without or with 1.0% human serum albumin. Also on record: expressed in transfected cells. Conditions: for EC50: geometric mean. In a few lines:
as §1

Setting [4] is: HEK293, percent of maximal response to GIP(1-42)NH2, 37° C., 0.1% bovine casein, arithmetic mean, read-out: hGIPR Emax, % ± SEM.
Where [5] appears, read: cAMP, incubated at 37° C., 0.1% bovine casein (no human serum albumin), read-out: hGCGR EC50, nM (SEM, n).
Setting [6] is: cAMP, incubated at 37° C., 0.1% bovine casein (no human serum albumin), read-out: hGLP-1R EC50, nM (SEM, n).
The mark [7] stands for this setting: 0.1% bovine casein and 1.0% human serum albumin, 37° C., read-out: hGCGR EC50, nM (SEM, n).
The mark [8] stands for this setting: HEK293, 0.1% bovine casein and 1.0% human serum albumin, 37° C., percent of maximal response to GLP-1(7-36)NH2, read-out: hGLP-1R Emax, % ± SEM.

Sequence of hGLP-1R (P43220 24-463): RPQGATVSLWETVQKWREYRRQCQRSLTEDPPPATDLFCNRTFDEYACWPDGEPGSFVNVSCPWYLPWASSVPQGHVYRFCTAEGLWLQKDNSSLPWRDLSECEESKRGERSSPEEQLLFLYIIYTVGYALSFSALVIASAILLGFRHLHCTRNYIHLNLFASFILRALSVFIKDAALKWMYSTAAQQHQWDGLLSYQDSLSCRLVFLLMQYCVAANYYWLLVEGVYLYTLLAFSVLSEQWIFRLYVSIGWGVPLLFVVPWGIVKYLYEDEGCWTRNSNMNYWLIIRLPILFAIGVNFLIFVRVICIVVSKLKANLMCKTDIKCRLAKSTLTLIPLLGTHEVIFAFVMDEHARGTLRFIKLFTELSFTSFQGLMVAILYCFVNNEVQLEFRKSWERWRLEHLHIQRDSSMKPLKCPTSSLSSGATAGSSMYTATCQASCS

A word on the Emax: it is the maximal effect, on the per cent scale that the assay sets. Broadly, the EC50 is the concentration at which the effect is half-maximal. For the compound `CC[C@H](C)[C@H](NC(=O)[C@H](CC(C)C)NC(=O)[C@](C)(Cc1ccc(O)cc1)NC(=O)[C@@H](CCC(=O)O)NC(=O)[C@@H](NC(=O)[C@H](Cc1ccccc1)NC(=O)[C@H](CCCCNC(=O)COCCOCCNC(=O)COCCOCCNC(=O)COCCOCCNC(=O)CC[C@H](NC(=O)CCCCCCCCCCCCC(=O)O)C(=O)O)NC(=O)C(C)(C)NC(=O)[C@H](CCC(N)=O)NC(=O)[C@H](C)NC(=O)[C@H](CCCCNC(=O)COCCOCCNC(=O)COCCOCCNC(=O)COCCOCCNC(=O)CC[C@H](NC(=O)CCCCCCCCCCCCC(=O)O)C(=O)O)NC(=O)[C@H](CCCN)NC(=O)[C@H](CC(=O)O)NC(=O)[C@H](CC(C)C)NC(=O)[C@](C)(CC(C)C)NC(=O)[C@@H](NC(=O)[C@H](CO)NC(=O)[C@H](Cc1ccncc1)NC(=O)[C@H](CC(=O)O)NC(=O)[C@H](CO)NC(=O)[C@@H](NC(=O)[C@](C)(Cc1ccccc1F)NC(=O)[C@@H](NC(=O)CNC(=O)[C@H](CCC(=O)O)NC(=O)C(C)(C)NC(=O)[C@@H](N)Cc1ccc(O)cc1)[C@@H](C)O)[C@@H](C)O)[C@@H](C)CC)[C@@H](C)CC)C(=O)N[C@@H](CCC(=O)O)C(=O)NCC(=O)NCC(=O)N1CCC[C@H]1C(=O)N[C@@H](CO)C(=O)N[C@@H](CO)C(=O)NCC(=O)N[C@@H](C)C(=O)N1CCC[C@H]1C(=O)N1CCC[C@H]1C(=O)N1CCC[C@H]1C(=O)N[C@@H](CO)C(N)=O` [Example 77], the Emax is 94.8 ± 2.69% in test [1] (setting [4]) and 87 ± 1.71% in test [3] (HEK293, percent of maximal response to GLP-1(7-36)NH2, 37° C., 0.1% bovine casein, arithmetic mean, read-out: hGLP-1R Emax, % ± SEM). Moreover, the EC50 was 0.0288 nM in test [1] (cAMP, incubated at 37° C., 0.1% bovine casein (no human serum albumin), read-out: hGIPR EC50, nM (SEM, n)); over 9950 nM in test [2] (setting [5]); 3.03 nM in test [3] (setting [6]).

With `CC[C@H](C)[C@H](NC(=O)[C@H](CCCN)NC(=O)[C@H](CC(=O)O)NC(=O)[C@H](CC(C)C)NC(=O)[C@](C)(CC(C)C)NC(=O)[C@@H](NC(=O)C(C)(C)NC(=O)[C@@H](NC(=O)[C@H](CC(=O)O)NC(=O)[C@H](CO)NC(=O)[C@@H](NC(=O)[C@](C)(Cc1ccccc1F)NC(=O)[C@@H](NC(=O)CNC(=O)[C@H](CCC(=O)O)NC(=O)C(C)(C)NC(=O)[C@@H](N)Cc1ccc(O)cc1)[C@@H](C)O)[C@@H](C)O)C(C)C)[C@@H](C)CC)C(=O)N[C@@H](C)C(=O)N[C@@H](CCC(N)=O)C(=O)NC(C)(C)C(=O)N[C@@H](CCC(=O)O)C(=O)N[C@@H](Cc1ccccc1)C(=O)N[C@H](C(=O)N[C@@H](CCCCNC(=O)COCCOCCNC(=O)COCCOCCNC(=O)CC[C@H](NC(=O)CCCCCCCCCCCCC(=O)O)C(=O)O)C(=O)N[C@@](C)(Cc1ccc(O)cc1)C(=O)N[C@@H](CC(C)C)C(=O)N[C@H](C(=O)N[C@@H](CCCCNC(=O)COCCOCCNC(=O)COCCOCCNC(=O)CC[C@H](NC(=O)CCCCCCCCCCCCC(=O)O)C(=O)O)C(=O)NCC(=O)NCC(=O)N1CCC[C@H]1C(=O)N[C@@H](CO)C(=O)N[C@@H](CO)C(=O)NCC(=O)N[C@@H](C)C(=O)N1CCC[C@H]1C(=O)N1CCC[C@H]1C(=O)N1CCC[C@H]1C(=O)N[C@@H](CO)C(N)=O)[C@@H](C)CC)[C@@H](C)CC` [Example 304], the Emax in test [1] (HEK293, cAMP, 37° C., 0.1% bovine casein, percent of maximal response to GIP(1-42)NH2, arithmetic mean, read-out: hGIPR Emax, % ± SEM) was 110%; in test [3] (setting [8]), 98.3%. In addition, the EC50 in test [1] (cAMP, 37° C., 0.1% bovine casein (no human serum albumin), read-out: hGIPR EC50, nM (SEM, n)) was 0.047 nM; in test [2] (setting [7]) it was over 9950 nM; in test [2] (cAMP, 37° C., 0.1% bovine casein (no human serum albumin), read-out: hGCGR EC50, nM (SEM, n)), over 9950 nM; in test [3] (cAMP, 37° C., 0.1% bovine casein (no human serum albumin), read-out: hGLP-1R EC50, nM (SEM, n)) it was 0.474 nM.

As to `CCCCCCCCCCCC(=O)N[C@@H](CCC(=O)NCCOCCOCC(=O)NCCOCCOCC(=O)NCCCC[C@H](NC(=O)CNC(=O)CNC(=O)[C@H](CCC(=O)O)NC(=O)[C@@H](NC(=O)[C@H](CC(C)C)NC(=O)[C@](C)(Cc1ccc(O)cc1)NC(=O)[C@@H](CCC(=O)O)NC(=O)[C@@H](NC(=O)[C@H](Cc1ccccc1)NC(=O)[C@H](CCC(=O)O)NC(=O)C(C)(C)NC(=O)[C@H](CCC(N)=O)NC(=O)[C@H](C)NC(=O)[C@H](CCCCNC(=O)COCCOCCNC(=O)COCCOCCNC(=O)CC[C@H](NC(=O)CCCCCCCCCCC)C(=O)O)NC(=O)[C@H](CCCN)NC(=O)[C@H](CC(=O)O)NC(=O)[C@H](CC(C)C)NC(=O)[C@](C)(CC(C)C)NC(=O)[C@@H](NC(=O)[C@H](CO)NC(=O)[C@H](Cc1ccncc1)NC(=O)[C@H](CC(=O)O)NC(=O)[C@H](CO)NC(=O)[C@@H](NC(=O)[C@](C)(Cc1ccccc1)NC(=O)[C@@H](NC(=O)CNC(=O)[C@H](CCC(=O)O)NC(=O)C(C)(C)NC(=O)[C@@H](N)Cc1ccc(O)cc1)[C@@H](C)O)[C@@H](C)O)[C@@H](C)CC)[C@@H](C)CC)[C@@H](C)CC)C(=O)N[C@@H](CO)C(=O)N[C@@H](CO)C(=O)NCC(=O)N[C@@H](C)C(=O)N1CCC[C@H]1C(=O)N1CCC[C@H]1C(=O)N1CCC[C@H]1C(=O)N[C@@H](CO)C(N)=O)C(=O)O` [Example 172], the EC50 in test [1] (0.1% bovine casein and 1.0% human serum albumin, 37° C., read-out: hGIPR EC50, nM (SEM, n)) was 0.385 nM; in test [2] (setting [7]) it was over 9950 nM; in test [2] (setting [5]), over 9950 nM; in test [3] (0.1% bovine casein and 1.0% human serum albumin, 37° C., read-out: hGLP-1R EC50, nM (SEM, n)) it was 7.7 nM; in test [3] (setting [6]), 0.141 nM. Also, the Emax in test [1] (HEK293, 0.1% bovine casein and 1.0% human serum albumin, 37° C., percent of maximal response to GIP(1-42)NH2, read-out: hGIPR Emax, % ± SEM) stood at 80.1 ± 2.06%; in test [1] (setting [4]), 89.9 ± 1.05%; in test [3] (setting [8]), 112 ± 10.3%.

As to `CC[C@H](C)[C@H](NC(=O)[C@H](CC(C)C)NC(=O)[C@](C)(Cc1ccc(O)cc1)NC(=O)[C@@H](CCC(=O)O)NC(=O)[C@@H](NC(=O)[C@H](Cc1ccccc1)NC(=O)[C@H](CCCCNC(=O)COCCOCCNC(=O)COCCOCCNC(=O)CC[C@H](NC(=O)CCCCCCCCCOc1ccc(C(=O)O)cc1)C(=O)O)NC(=O)C(C)(C)NC(=O)[C@H](CCC(N)=O)NC(=O)[C@H](C)NC(=O)[C@H](CCCCNC(=O)COCCOCCNC(=O)COCCOCCNC(=O)CC[C@H](NC(=O)CCCCCCCCCOc1ccc(C(=O)O)cc1)C(=O)O)NC(=O)[C@H](CCCN)NC(=O)[C@H](CC(=O)O)NC(=O)[C@H](CC(C)C)NC(=O)[C@](C)(CC(C)C)NC(=O)[C@@H](NC(=O)[C@H](CO)NC(=O)[C@H](Cc1ccc2ccccc2c1)NC(=O)[C@H](CC(=O)O)NC(=O)[C@H](CO)NC(=O)[C@@H](NC(=O)[C@](C)(Cc1ccccc1F)NC(=O)[C@@H](NC(=O)CNC(=O)[C@H](CCC(=O)O)NC(=O)C(C)(C)NC(=O)[C@@H](N)Cc1ccc(O)cc1)[C@@H](C)O)[C@@H](C)O)[C@@H](C)CC)[C@@H](C)CC)C(=O)N[C@@H](CCC(=O)O)C(=O)NCC(=O)NCC(=O)N1CCC[C@H]1C(=O)N[C@@H](CO)C(=O)N[C@@H](CO)C(=O)NCC(=O)N[C@@H](C)C(=O)N1CCC[C@H]1C(=O)N1CCC[C@H]1C(=O)N1CCC[C@H]1C(=O)N[C@@H](CO)C(N)=O` [Example 281], the Emax in test [1] (HEK293, read-out: hGIPR Emax, % ± SEM, 0.1% bovine casein and 1.0% human serum albumin, 37° C., percent of maximal response to GIP(1-42)NH2) was found to be 97.9%; in test [1] (HEK293, read-out: hGIPR Emax, % ± SEM, cAMP, 37° C., 0.1% bovine casein, percent of maximal response to GIP(1-42)NH2, arithmetic mean), 110%; in test [3] (HEK293, read-out: hGLP-1R Emax, % ± SEM, 0.1% bovine casein and 1.0% human serum albumin, 37° C., percent of maximal response to GLP-1(7-36)NH2) it was 91.7%. Also, the EC50 in test [1] (hGIPR EC50, nM (SEM, n), 0.1% bovine casein and 1.0% human serum albumin, 37° C.) was 1.87 nM; in test [1] (hGIPR EC50, nM (SEM, n), cAMP, 37° C., 0.1% bovine casein (no human serum albumin)), 0.0187 nM; in test [2] (hGCGR EC50, nM (SEM, n), 0.1% bovine casein and 1.0% human serum albumin, 37° C.) it was over 9950 nM; in test [2] (hGCGR EC50, nM (SEM, n), cAMP, 37° C., 0.1% bovine casein (no human serum albumin)) it was over 9950 nM; in test [3] (hGLP-1R EC50, nM (SEM, n), cAMP, 37° C., 0.1% bovine casein (no human serum albumin)), 0.252 nM.
